Source: patent US20220313650A1, “METHODS FOR TREATING NEURODEVELOPMENTAL DISORDERS” (The Broad Institute, Inc., priority 2019, published 2022)
Entries after “also recorded” stand apart in the source; their conditions may differ.

How the values were obtained:
cortico-TRN synapses = assay: Optogenetically evoked EPSCs in patched TRN neurons, cortico-TRN pathway; type: cell-based, mice; conditions: cortico-TRN synapses, before vs after bath application
Description: (§1) For conducting slice electrophysiology analysis, whole-cell patch-clamp recordings were performed using horizontal slices for the rebound bursting assays and angled-coronal thalamocortical slices for the synaptic optogenetics experiments (Agmon et al., 1991). 21-35 day old male C57BL6 mice and Ptchd1 Y/− (knockout) mice were used. Animals were transcardially perfused under isoflurane anesthesia with an ice-cold cutting solution (194 mM Sucrose, 30 mM NaCl, 4.5 mM KCl, 1.2 mM NaH2PO4, 10 mM Glucose, 2 mM MgCl2, 0.2 mM CaCl2, and 26 mM NaHCO3). Mice were then decapitated and the brains were carefully dissected out. Both cerebellum and olfactory bulb were removed from the brain and were placed and glued onto the stage of a Leica Vibratome with the ventral surface down and the pial surface towards the blade. 250 micron thick slices containing the TRN were then collected and recovered in regular artificial cerebrospinal fluid (aCSF; 119 mM NaCl, 2.3 mM KCl, 1 mM NaH2PO4; 11 mM Glucose, 1.3 mM MgCl2, 2.5 mM CaCl2), 26 mM NaHCO3) heated to 32° C. for 10 minutes and then at room temperature for at least 1 hr. All buffers were continuously bubbled with 95% O2/5% C02. Slices were then transferred to a submersion recording chamber where they were perfused with aCSF at a rate of 2 ml/min at room temperature. Patch recording pipettes were pulled using a Flaming/Brown micropipette puller (Sutter Instruments) and Borosilicate glass (KG33, King Precision Glass). The DC resistances were ˜4-6 MΩ. Potassium methanesulfonate based internal solution (140 mM KMeSO3; 10 mM KCl; 10 mM HEPES; 0.1 mM EGTA; 4 mM Mg-ATP; 0.2 mM Na-GTP; 10 mM hosphocreatine) was used. Neurons were visualized using infrared differential interference contrast (IR-DIC) microscopy (Olympus, BX51W1) with an upright microscope digital camera.
To study the changes in the acute somatosensory thalamocortical or horizontal brain areas, 21-25 days old Nex-Cre or VgluT2-Cre mice were anesthetized with isoflurane while placed in a small animal stereotaxic apparatus (David Kopf Instruments, CA, USA) and were injected bilaterally with 280 nl of mcherry-dflox.hChR2.EF1.AAV1 using a Nanoject (Drummond Scientific, Broomall, Pa.) via glass pipettes with […] diameter tips in somatosensory cortex (S1) and ventrobasal thalamic complex (VB). Coordinates from the bregma for S1: AP −0.7, ML 2.4 and DV 1.2 and for VB: AP −1.6, ML 1.5 and DV 3.5. The pipette was held in the final position for 10 min after injection before withdrawal from the brain. The incision was closed with vetbond and after surgery mice were injected with analgesics (SR-Bupronex 1 mg/kg) every 72 hours or as needed. […]
(§2) After allowing 1-2 weeks for mcherry-dflox.hChR2.EF1.AAV1 expression, acute somatosensory thalamocortical or horizontal brain slices were freshly obtained for in vitro recording and optogenetic stimulation (250 um thick, thalamocortical slices containing TRN from angled-coronal sections; Agmon and Connors, 1991) for optogenetic analysis. In brief, patch clamp recordings in voltage clamp configuration were performed while the Cortico-TRN or Thalamic-TRN pathway was activated by applying a blue LED (400-450 nm) light pulses (Lumen 300-LED Fluorescence Excitation Illumination System). For synaptic stimulation, neurons were held at −70 mV while 0.1-1.5 ms flashes were delivered directly to the recorded cell soma delivered through the 40× water immersion objective. […]

thalamo-TRN synapses = assay: Optogenetically evoked EPSCs in patched TRN neurons, thalamo-TRN pathway; type: cell-based, mice; conditions: thalamo-TRN synapses, before vs after bath perfusion
Description: as §1, with “camera. […]” for “camera.”
as §2

WT mice = assay: Open field test of locomotor activity, WT mice; type: in vivo
Description: (§3) For performing the open field test, mice were allowed to habituate to the behavioral testing room for 1 hour before the experiment. The locomotor activity in mice was evaluated over a 90 minute period in an automated Omnitech Digiscan apparatus (AccuScan Instruments). Locomotor activity was assessed as total distance traveled (m). For drug treatment experiments, mice received an intraperitoneal injection 15 minutes before the assay and then where placed kindly in the left corner, head facing into the corner.
(§4) The effects of mGluR2/3 activation on the locomotor activity of WT mice and Ptchd1 mutant mice were evaluated. In brief, all mice were treated with mGluR2/3 agonist, LY379268, at three different dosages (1 mg/kg, 5 mg/kg and 10 mg/kg) for open-field testing.
(§5) Here, whether mGluR3 activation would rescue the hyperactivity phenotype of Ptchd1 KO mice was evaluated. Locomotor activity estimated as total distance travelled (in) was assessed over a 90 min period in an automated Omnitech Digiscan apparatus. For drug treatment experiments, mice were placed in the open-field arena for 30 minutes prior to Mavalon 63 (5 mg/kg and 10 mg/kg in saline; i.p.), or vehicle injections before being returned to the arena.

Ptchd1 KO mice [1] = assay: Open field test of locomotor activity, Ptchd1 KO mice; type: in vivo
Description: as §3, §4, §5

WT TRN neurons = assay: Whole-cell patch-clamp rebound burst firing in acute brain slices, WT mice; type: cell-based
Description: as §1
The recordings were made with a microelectrode amplifier with bridge and voltage clamp modes of operation (Multiclamp 700B, Molecular Devices, San Jose, Calif., USA). Signals were low-pass filtered at 2 kHz and sampled at 10-20 kHz with a Digidata 1440A (Molecular Devices, San Jose, Calif., USA). Data were stored on a computer for subsequent off-line analysis. Cells with the series resistance (Rs, typically 8-12 MΩ) changed by >20% were excluded for data analysis. In addition, cells with Rs more than […] at any time during the recordings were discarded.

Ptchd1 KO TRN neurons = assay: Whole-cell patch-clamp rebound burst firing in acute brain slices, Ptchd1 KO mice; type: cell-based; conditions: Mavalon 63
Description: as §1, with “Patch recording pipettes were pulled using a Flaming/Brown micropipette puller (Sutter Instruments) and Borosilicate glass (KG33, King Precision Glass). The DC resistances were ˜4-6 MΩ. Potassium methanesulfonate based internal solution (140 mM KMeSO3; 10 mM KCl; 10 mM HEPES; 0.1 mM EGTA; 4 mM Mg-ATP; 0.2 mM Na-GTP; 10 mM hosphocreatine) was used. Neurons were visualized using infrared differential interference contrast (IR-DIC) microscopy (Olympus, BX51W1) with an upright microscope digital camera.” left out

wild type mice = assay: EEG/EMG sleep recording, WT mice; type: in vivo; conditions: Mavalon 63 10 mg/kg ip, 12 h recordings, 10 mg/kg
Excerpt: For EEG recording studies, 8- to 12-week-old male mice with C57Bl/6J background, Ptchd1Y/− (knockout) and Ptchd1Y/+ (wild type) were deeply anesthetized with a 1% to 1.5% isoflurane. A screw electroencephalography (EEG) electrode (catalog no. 8403; Pinnacle Technology, Inc.) was implanted into the skull above the primary somatosensory cortex, S1 (AP: −1.8 and ML: +3.0 mm) using a stereotaxic device (David Kopf Instruments). A reference electrode was screwed in the occipital region of the skull and stainless steel electromyography (EMG) electrodes were placed in the nuchal muscle. All the electrodes were connected to a head-mount (catalog no. 8201-SS; Pinnacle Technology) and secured by using dental cement. The mice were allowed to recover for at least 2 weeks. Spontaneous EEG/EMG signals were recorded for 12 hours with a differential amplifier (8200-K1-SL amplifier; Pinnacle Technology). […] Data were analyzed offline using Matlab (R2016a; MathWorks). The spectral power was calculated in 0.5-Hz bins (fast Fourier transform with Hamming window) with artifact-free 4-hour EEG signals from each animal. […]
(§6) EEG and EMG from the frontal and parietal cortex and from the nuchal muscular complex were simultaneously recorded.
(§7) Surface electroencephalography (EEG) and electromyography (EMG) from the frontal and parietal cortex and from the nuchal muscular complex were simultaneously recorded.

Ptchd1 KO mice [2] = assay: EEG/EMG sleep recording, Ptchd1 KO mice; type: in vivo; conditions: Ptchd1 KO mice, Mavalon 63 10 mg/kg ip, 12 h recordings; 10 mg/kg
Excerpt: For EEG recording studies, 8- to 12-week-old male mice with C57Bl/6J background, Ptchd1Y/− (knockout) and Ptchd1Y/+ (wild type) were deeply anesthetized with a 1% to 1.5% isoflurane. A screw electroencephalography (EEG) electrode (catalog no. 8403; Pinnacle Technology, Inc.) was implanted into the skull above the primary somatosensory cortex, S1 (AP: −1.8 and ML: +3.0 mm) using a stereotaxic device (David Kopf Instruments). A reference electrode was screwed in the occipital region of the skull and stainless steel electromyography (EMG) electrodes were placed in the nuchal muscle. All the electrodes were connected to a head-mount (catalog no. 8201-SS; Pinnacle Technology) and secured by using dental cement. The mice were allowed to recover for at least 2 weeks. Spontaneous EEG/EMG signals were recorded for 12 hours with a differential amplifier (8200-K1-SL amplifier; Pinnacle Technology). All signals were digitized at a sampling frequency of 1,000 Hz, filtered (1-100 Hz bandpass for EEG; 10-1 kHz bandpass for EMG), and acquired using Sirenia Acquisition program (Pinnacle Technology). Data were analyzed offline using Matlab (R2016a; MathWorks). The spectral power was calculated in 0.5-Hz bins (fast Fourier transform with Hamming window) with artifact-free 4-hour EEG signals from each animal. The power for the spectral band was normalized in reference to the power of the entire EEG spectrum (1-100 Hz) in each animal and averaged across all the animals in the same treatment or drug condition.
as §6, §7

| Compound | paired-pulse ratio (PPR) (cortico-TRN synapses) | paired-pulse ratio (PPR) (thalamo-TRN synapses) | locomotor activity (WT mice; WT mice, AZD8529 three dosing levels i.p., 90 minutes) | locomotor activity (Ptchd1 KO mice [1]; AZD8529 10, 20, 50 mg/Kg i.p., 90 minutes) | rebound burst firing, occlusion experiment (WT TRN neurons; LY379268 applied in the presence of (after pretreatment with) ML337) | number of rebound burst firings (WT TRN neurons; TRN neurons, ML337 5 μM bath application alone) | number of rebound burst firings (WT TRN neurons; WT TRN neurons, Mavalon 63 in bath, after somatic hyperpolarization pulse, holding potentials −80 mV to −50 mV) | repetitive rebound bursting (Ptchd1 KO TRN neurons) | paired-pulse ratio (PPR) (cortico-TRN synapses; listed as mGluR3 PAM) | paired-pulse ratio (PPR) (thalamo-TRN synapses; listed as mGluR3 PAM) | length of NREM sleep bout (wild type mice) | length of NREM sleep bout (Ptchd1 KO mice [2]) | locomotor activity (total distance travelled) (WT mice; WT mice, Mavalon 63 5 mg/kg and 10 mg/kg i.p., 90 min) | spontaneous locomotion activity (WT mice; wild type mice, Mavalon 63 30 mg/kg i.p.) | locomotor activity (total distance travelled) (Ptchd1 KO mice [1]; Mavalon 63 5 mg/kg and 10 mg/kg i.p., 90 min) | locomotor activity (hyperactivity) (Ptchd1 KO mice [1]; Mavalon 63 30 mg/kg i.p., p=0.06, Bonferroni's multiple comparisons test) | hyperactivity phenotype, summary over doses (Ptchd1 KO mice [1]; Mavalon 63 5, 10, 30 mg/Kg i.p., dose-dependent manner) |
| --- | --- | --- | --- | --- | --- | --- | --- | --- | --- | --- | --- | --- | --- | --- | --- | --- | --- |
| Cc1cc(-c2nc(CN3CCNCC3)no2)cc2c1C(=O)N(Cc1ccc(OC(F)(F)F)cc1)C2 [AZD8529, 1H-Isoindol-1-one, 2,3-dihydro-7-methyl-5-[3-(1-piperazinylmethyl)-1,2,4-oxadiazol-5-yl]-2-[[4-(trifluoromethoxy)phenyl]methyl]-] | significant increase in the paired-pulse ratio (PPR); also recorded: significantly increased | no significant changes in the size of PPR | reduced locomotor activity | reduced locomotor activity | – | – | – | – | – | – | – | – | – | – | – | – | – |
| COc1ccc(C#Cc2ccc(C(=O)N3CCC[C@@H](O)C3)c(F)c2)cc1 [ML337, (R)-(2-fluoro-4-((- 4-methoxy-phenyl)ethynyl)phenyl) (3-hydroxypiperidin-1-yl)methanone] | – | – | – | – | blocked LY379268-induced enhancement of rebound bursting | decrease in the repetitive rebound bursting; also recorded: reduces the repetitive burst firings; also recorded: number of rebound burst firing was reduced | – | – | – | – | – | – | – | – | – | – | – |
| CN1C(=O)c2cccn2-c2cc(-c3ccc(F)cn3)ccc2C12CC2 [Mavalon 63, 5-Methyl-9-(5-fluoropyridin-2-yl)-spiro [benzo[f]pyrrolo[1,2-a][1,4]diazepine-6,1′-cyclopropan]-4(5H)-one] | not significantly increased | no significant changes in the size of PPR | – | – | – | – | significant increase in repetitive rebound bursting; also recorded: increase in the number of rebound burst firings; also recorded: Significant changes were detected at a membrane holding potentials between −70 mV and −60 mV | significant increase in repetitive rebound bursting | No significant changes in PPR | no significant changes in the PPR | no change was observed | specifically increased the Non-REM (NREM) sleep bout length; also recorded: increased the length of NREM sleep bout | no significant effect on locomotor activity | No effect on the spontaneous locomotion activity | no significant effect on locomotor activity | trend of reducing the hyperactivity | able to normalize the hyperactivity phenotype |
